Measured values taken from patent publication US6727237B2, “Inhibitors of bacterial NAD synthetase” (priority 1998, dated 2004).

Target: T1, bacterial NAD synthetase enzyme (Bacillus subtilis, UniProt P08164)
T1 sequence (P08164 2-272 limits assumed): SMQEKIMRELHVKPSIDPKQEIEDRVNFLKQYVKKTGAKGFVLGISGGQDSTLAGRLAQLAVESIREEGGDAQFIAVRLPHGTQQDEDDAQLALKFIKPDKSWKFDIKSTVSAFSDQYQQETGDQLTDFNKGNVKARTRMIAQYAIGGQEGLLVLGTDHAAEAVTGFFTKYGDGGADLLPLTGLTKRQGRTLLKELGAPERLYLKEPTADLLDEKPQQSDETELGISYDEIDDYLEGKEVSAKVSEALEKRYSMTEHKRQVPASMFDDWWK
Assay: biochemical
Format: biochemical
Settings: not given

Structure (SMILES)	IC50	inhibition at 100 µM	inhibition at 200 µM	inhibition at 250 µM
CC(C)c1ccc2[nH]c(CCCCCCCCOC(=O)c3cccc([N+](C)(C)C)c3)cc2c1 [Compound 876]	75 µM	95.4%		
CN(C)c1ccc(CC(=O)OCCCCCCCCOc2ccccc2C(N)=O)cc1 [Compound 1031]	36.3 µM		23%	
COC(=O)c1cc2ccccc2n1CCCCCCCCOC(=O)c1ccc[n+](C)c1 [Compound 973]	45 µM	97.8%		
C[N+](C)(C)c1ccc(CC(=O)OCCCCCCCCOc2ccccc2C(N)=O)cc1 [Compound 1080]	100 µM		83%	
C[n+]1cccc(C(=O)OCCCCCCCc2cc3cc(Oc4ccccc4)ccc3[nH]2)c1 [Compound 917]	60 µM			88.9%
COc1ccccc1OCCCCCCCCOC(=O)Cc1ccc([N+](C)(C)C)cc1 [Compound 1087]	40 µM		61%	
CC(=O)c1ccc2[nH]c(CCCCCCCCOC(=O)c3cc[n+](C)cc3)cc2c1 [Compound 909]	25 µM	97.2%		
C[N+](C)(C)c1ccc(C(=O)OCCCCc2cc3cc(Oc4ccccc4)ccc3[nH]2)cc1 [Compound 886]	80 µM	94.5%		
C[N+](C)(C)c1cccc(C(=O)OCCCCCCCCc2cc3cc(C(=O)c4ccccc4)ccc3[nH]2)c1 [Compound 882]	90 µM	94.5%		
C[n+]1cccc(C(=O)OCCCOc2ccc(C(=O)c3ccccc3)cc2)c1 [Compound 1068]	62.5 µM		92%	
C[N+](C)(C)c1ccc(CC(=O)OCCCCCCCCOc2ccccc2C(=O)Nc2ccccc2)cc1 [Compound 1074]	30 µM		91%	
CC(C)c1ccc2[nH]c(CCCCCCCCOC(=O)c3ccc[n+](C)c3)cc2c1 [Compound 921]	25 µM	96.7%		
COC(=O)c1cc2ccccc2n1CCCCCCCOC(=O)c1ccc[n+](C)c1 [Compound 972]	40 µM	96.8%		
C[N+](C)(C)c1ccc(CC(=O)OCCCCCCCCOc2cccc([N+](=O)[O-])c2)cc1 [Compound 1085]	138 µM		87%	

Same assay, conditions: compound at 0.1 mM (Table 314)

Structure (SMILES)	% Inhibition
FC(F)(F)c1ccc2cc(CCCCC[n+]3ccccc3)[nH]c2c1 [Compound 290]	12.89%
FC(F)(F)c1ccc2cc(CCCC[n+]3ccccc3)[nH]c2c1 [Compound 715]	20.73%
O=[N+]([O-])c1ccc2[nH]c(CCCCC[n+]3ccccc3)cc2c1 [Compound 332]	12.27%
c1ccc(C(c2ccccc2)(c2ccccc2)c2ccc3[nH]c(CCCC[n+]4ccccc4)cc3c2)cc1 [Compound 337]	35.94%
c1ccc(-c2ccc3[nH]c(CCCCCCC[n+]4ccccc4)cc3c2)cc1 [Compound 328]	47.85%
Fc1cc(F)c2[nH]c(CCCCCCC[n+]3ccccc3)cc2c1 [Compound 304]	29.48%
CC(C)c1ccc2[nH]c(CCCC[n+]3ccccc3)cc2c1 [Compound 319]	16.99%

Same assay, conditions: compound at 0.2 mM (Table 312A)

Structure (SMILES)	% Inhibition
O=[N+]([O-])c1ccc2[nH]c(CCCCCC[n+]3cccc4ccccc43)cc2c1 [Compound 441]	11.80%
Fc1ccc2[nH]c(CCCCCCCC[n+]3ccc4ccccc4c3)cc2c1 [Compound 563]	22.68%
FC(F)(F)c1ccc2[nH]c(CCCCCCCC[n+]3cccc4ccccc43)cc2c1 [Compound 473]	15.06%
c1ccc(-c2ccc3[nH]c(CCC[n+]4ccccc4)cc3c2)cc1 [Compound 324]	34.99%
CCCCc1ccc2[nH]c(CCC[n+]3cccc4ccccc43)cc2c1 [Compound 420]	9.16%
CC(C)c1ccc2[nH]c(CCCCCCCC[n+]3ccccc3)cc2c1 [Compound 323]	28.08%
O=[N+]([O-])c1ccc2[nH]c(CCCCCCCC[n+]3ccccc3)cc2c1 [Compound 335]	3.28%
C[n+]1cccc(C(=O)OCCCCCCCCn2ccc3ccccc32)c1 [Compound 969]	83.16%
O=[N+]([O-])c1cc([N+](=O)[O-])c2[nH]c(CCCCCCC[n+]3ccccc3)cc2c1 [Compound 310]	38.29%
FC(F)(F)c1ccc2[nH]c(CCC[n+]3ccc4ccccc4c3)cc2c1 [Compound 576]	2.05%
O=[N+]([O-])c1ccc2c(ccn2CCCCCCCC[n+]2ccccc2)c1 [Compound 6]	5.67%
COc1ccc2c(ccn2CCCCCOC(=O)c2ccc[n+](C)c2)c1 [Compound 761]	6.88%
Cc1ccc2[nH]c(CCCC[n+]3ccc4ccccc4c3)cc2c1 [Compound 511]	11.02%
FC(F)(F)c1ccc2[nH]c(CCCCCCCC[n+]3ccccc3)cc2c1 [Compound 365]	16.45%
Fc1cc(F)c2[nH]c(CCCCC[n+]3cccc4ccccc43)cc2c1 [Compound 410]	8.77%
FC(F)(F)c1ccc2cc(CCCCCC[n+]3cccc4ccccc43)[nH]c2c1 [Compound 399]	15.22%
O=C(OCCCCCCCc1cc2cc(Oc3ccccc3)ccc2[nH]1)c1cccnc1 [Compound 685]	7.81%

Structure (SMILES)	% Inhibition
O=C(c1ccccc1)c1ccc2[nH]c(CCCCCCC[n+]3cccc4ccccc43)cc2c1 [Compound 466]	5.79%
FC(F)(F)c1ccc2[nH]c(CCC[n+]3ccccc3)cc2c1 [Compound 360]	3.46%
FC(F)(F)c1ccc2cc(CCCCCCCC[n+]3ccc4ccccc4c3)[nH]c2c1 [Compound 509]	78.00%
C[N+](C)(C)c1ccc(CC(=O)OCCCCCCCn2ccc3ccccc32)cc1 [Compound 980]	74.86%
FC(F)(F)c1ccc2[nH]c(CCCCCCCC[n+]3ccc4ccccc4c3)cc2c1 [Compound 581]	21.66%
O=C(O)c1ccc2[nH]c(CCC[n+]3ccc4ccccc4c3)cc2c1 [Compound 600]	3.10%
O=[N+]([O-])c1cc([N+](=O)[O-])c2[nH]c(CCCCC[n+]3ccccc3)cc2c1 [Compound 308]	33.71%
FC(F)(F)c1ccc2cc(CCCC[n+]3ccccc3)[nH]c2c1 [Compound 289]	9.28%
COC(=O)c1ccc2[nH]c(CCCC[n+]3ccc4ccccc4c3)cc2c1 [Compound 595]	17.94%
O=C(c1ccccc1)c1ccc2[nH]c(CCC[n+]3ccccc3)cc2c1 [Compound 354]	2.96%
Fc1cc(F)c2[nH]c(CCC[n+]3ccc4ccccc4c3)cc2c1 [Compound 516]	29.95%
FC(F)(F)c1ccc2[nH]c(CCCC[n+]3ccc4ccccc4c3)cc2c1 [Compound 577]	20.58%
O=C(O)c1ccc2[nH]c(CCCC[n+]3ccccc3)cc2c1 [Compound 385]	61.62%
O=C(O)c1ccc2[nH]c(CCCCCC[n+]3cccc4ccccc43)cc2c1 [Compound 495]	6.80%
c1ccc2c[n+](CCCc3cc4ccccc4[nH]3)ccc2c1 [Compound 498]	47.31%
COc1ccc2[nH]c(CCCCCCCC[n+]3ccccc3)cc2c1 [Compound 377]	30.12%

Same assay, conditions: compound at 0.2 mM (Table 312B)

Structure (SMILES)	% Inhibition
CC(=O)c1ccc(OCCCCCCCCOC(=O)c2ccc[n+](C)c2)cc1 [compound 1058]	18%
COC(=O)c1cc2cc(OCc3ccccc3)ccc2n1CCCCCCCOC(=O)Cc1ccc([N+](C)(C)C)cc1 [compound 1105]	167%
C[n+]1cccc(C(=O)OCCCCCCCCOc2ccccc2C(N)=O)c1 [compound 1060]	19%
O=C(OCCCCCCCCOc1ccccc1N1CCCC1)c1cccnc1 [Compound 1019]	3%
C[n+]1cccc(C(=O)OCCCCCCCCOc2ccccc2[N+](=O)[O-])c1 [compound 1055]	46%
CC(=O)c1cccc(OCCCCCCCCOC(=O)Cc2ccc([N+](C)(C)C)cc2)c1 [Compound 1089]	56%
COc1cccc(OCCCCCCCCOC(=O)Cc2ccc([N+](C)(C)C)cc2)c1 [Compound 1077]	73%
COc1cccc(OCCCCCCCCOC(=O)c2ccc[n+](C)c2)c1 [compound 1057]	59%
CN(C)c1ccc(CC(=O)OCCCCCCCCOc2ccccc2N2CCCC2)cc1 [Compound 1046]	2%
CN(C)c1ccc(CC(=O)OCCCCCCCCOc2ccccc2C=CC(=O)c2ccccc2)cc1 [Compound 1038]	22%
C[n+]1cccc(C(=O)OCCCCCCCCOc2ccc(OC(=O)c3ccccc3)cc2)c1 [compound 1062]	18%
O=C(OCCCCCCCCOc1ccc(Oc2ccccc2)cc1)c1cccnc1 [Compound 1016]	29%
CN(C)c1ccc(CC(=O)OCCCCCCCCOc2cccc([N+](=O)[O-])c2)cc1 [Compound 1036]	6%
COc1ccccc1OCCCCCCCCOC(=O)c1cccnc1 [Compound 1012]	2%
C[n+]1cccc(C(=O)OCCCCCCCCOc2cccc(OC(=O)c3ccccc3)c2)c1 [compound 1059]	85%

Same assay, conditions: compound at 0.25 mM

Structure (SMILES)	% Inhibition
CC(=O)c1ccc2[nH]c(CCCCOC(=O)c3ccc[n+](C)c3)cc2c1 [Compound 922]	87.4%
C[N+](C)(C)c1ccc(C(=O)OCCCCCCCCc2cc3cc(C(=O)c4ccccc4)ccc3[nH]2)cc1 [Compound 897]	50.9%
CC(=O)c1ccc2[nH]c(CCCCOC(=O)c3cc[n+](C)cc3)cc2c1 [Compound 907]	20.6%
C[n+]1cccc(C(=O)OCCCCCCCCc2cc3cc(Oc4ccccc4)ccc3[nH]2)c1 [Compound 918]	98.6%
